Measurements: BindingDB's records for doi:10.1002/ps.3406 (2013)

Target: Ryanodine receptor (Myzus persicae)
Assay: Binding affinity to Myzus persicae (green peach aphid) ryanodine receptor by radioligand binding assay

## CNC(=O)c1cc(Cl)cc(C)c1NC(=O)c1cc(Br)nn1-c1ncccc1Cl [3-bromo-N-(4-chloro-2-methyl-6-(methylcarbamoyl)phenyl)-1-(3-chloropyridin-2-yl)-1H-pyrazole-5-carboxamide]
  IC50: 2 nM
